PubChem BioAssay AID248 (DTP/NCI, 2004)
Where “and” joins values, the source holds several entries; their conditions need not be identical. Equal entries are not always repeated. Toxic doses and inconclusive results are not listed.

Tested on: L1210 leukemia ip in BDF1 mice, survival T/C
Test: NCI In Vivo Anticancer Drug Screen. Data for tumor model L1210 Leukemia (intraperitoneal) in B6D2F1 (BDF1) mice
Settings: endpoint: mean survival time, higher = longer survival
In short: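 Read-out is survival time, reported as the treated-group measurement over the vehicle-control measurement.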

[1] = dose: 100.0 mg/kg/injection, schedule: Q04DX003 (ip), vehicle: saline
[2] = dose: 200.0 mg/kg/injection, schedule: Q04DX003 (ip), vehicle: saline
[3] = dose: 400.0 mg/kg/injection, schedule: Q04DX003 (ip), vehicle: saline
[4] = dose: 100.0 mg/kg/injection, schedule: Q01DX009 (ip), vehicle: Klucel (hydroxypropylcellulose) (HPC)
[5] = dose: 200.0 mg/kg/injection, schedule: Q01DX009 (ip), vehicle: Klucel (hydroxypropylcellulose) (HPC)
[6] = dose: 100.0 mg/kg/injection, schedule: Q04DX003 (ip), vehicle: Klucel (hydroxypropylcellulose) (HPC)
[7] = dose: 200.0 mg/kg/injection, schedule: Q04DX003 (ip), vehicle: Klucel (hydroxypropylcellulose) (HPC)
[8] = dose: 100.0 mg/kg/injection, schedule: Q04DX003 (ip), vehicle: saline with Tween-80
[9] = dose: 200.0 mg/kg/injection, schedule: Q04DX003 (ip), vehicle: saline with Tween-80
[10] = dose: 50.0 mg/kg/injection, schedule: Q01DX009 (ip), vehicle: saline with Tween-80
[11] = dose: 100.0 mg/kg/injection, schedule: Q01DX009 (ip), vehicle: saline with Tween-80
[12] = dose: 200.0 mg/kg/injection, schedule: Q01DX009 (ip), vehicle: saline with Tween-80
[13] = dose: 400.0 mg/kg/injection, schedule: Q04DX003 (ip), vehicle: Klucel (hydroxypropylcellulose) (HPC)
[14] = dose: 100.0 mg/kg/injection, schedule: Q04DX002 (ip), vehicle: Klucel (hydroxypropylcellulose) (HPC)
[15] = dose: 200.0 mg/kg/injection, schedule: Q04DX002 (ip), vehicle: Klucel (hydroxypropylcellulose) (HPC)
[16] = dose: 400.0 mg/kg/injection, schedule: Q04DX002 (ip), vehicle: Klucel (hydroxypropylcellulose) (HPC)
[17] = dose: 100.0 mg/kg/injection, schedule: Q01DX001 (ip), vehicle: saline
[18] = dose: 200.0 mg/kg/injection, schedule: Q01DX001 (ip), vehicle: saline
[19] = dose: 400.0 mg/kg/injection, schedule: Q01DX001 (ip), vehicle: saline

## CN(C)CCCOC(=O)C1C2CC3OC(=O)C1C3C2 (configuration not stated)
[1]
  T/C: 93 % of control
[2]
  T/C: 96 % of control
[3]
  T/C: 101 % of control

## COc1ccc2c(c1OC(C)=O)-c1cc(O)cc3c1C(C2)N(C(=O)CN(CCO)CCO)CC3 (configuration not stated)
dose: 25.0 mg/kg/injection, schedule: Q04DX003 (ip), vehicle: DMSO
  T/C: 104 % of control
dose: 50.0 mg/kg/injection, schedule: Q04DX003 (ip), vehicle: DMSO
  T/C: 93 % of control
dose: 100.0 mg/kg/injection, schedule: Q04DX003 (ip), vehicle: DMSO
  T/C: 89 % of control
dose: 200.0 mg/kg/injection, schedule: Q04DX003 (ip), vehicle: DMSO
  T/C: 104 % of control
dose: 400.0 mg/kg/injection, schedule: Q04DX003 (ip), vehicle: DMSO
  T/C: 97 % of control

## COC(=O)c1ccc(OC(=O)Nc2ccc(F)c([N+](=O)[O-])c2)cc1
[4]
  T/C: 101 % of control
[5]
  T/C: 104 % of control

## O=C(CCl)N(O)c1ccccc1OCc1ccccc1
dose: 100.0 mg/kg/injection, schedule: Q04DX003 (ip), vehicle: carboxymethylcellulose (CMC)
  T/C: 91 % of control
dose: 200.0 mg/kg/injection, schedule: Q04DX003 (ip), vehicle: carboxymethylcellulose (CMC)
  T/C: 102 % of control

## O=[N+]([O-])c1ccc(C=Nc2cccc3ncccc23)s1
[6]
  T/C: 95 % of control
[7]
  T/C: 93 % of control

## CCOC(=O)/C(C#N)=C(\CCCCc1ccccc1)CC(C)C
dose: 100.0 mg/kg/injection, schedule: Q04DX002 (ip), vehicle: saline with Tween-80
  T/C: 101 % of control
dose: 200.0 mg/kg/injection, schedule: Q04DX002 (ip), vehicle: saline with Tween-80
  T/C: 92 % of control
dose: 400.0 mg/kg/injection, schedule: Q04DX002 (ip), vehicle: saline with Tween-80
  T/C: 104 % of control

## Cc1ccc(S(=O)(=O)NC(Cc2ccccc2)C(=O)CCl)cc1 (configuration not stated)
[8]
  T/C: 92 % of control
[9]
  T/C: 92 % of control

## c1ccc(-c2nc(-c3ccccn3)nc(-c3ccccn3)n2)nc1
dose: 5.0 mg/kg/injection, schedule: Q01DX001 (ip), vehicle: saline
  T/C: 107 % of control
dose: 10.0 mg/kg/injection, schedule: Q01DX001 (ip), vehicle: saline
  T/C: 96 % of control
dose: 20.0 mg/kg/injection, schedule: Q01DX001 (ip), vehicle: saline
  T/C: 100 % of control
dose: 40.0 mg/kg/injection, schedule: Q01DX001 (ip), vehicle: saline
  T/C: 93 % of control
dose: 80.0 mg/kg/injection, schedule: Q01DX001 (ip), vehicle: saline
  T/C: 91 % of control

## CC1CCC2(O)C(O)CCCC2(C)C1C (configuration not stated)
[10]
  T/C: 92 % of control
[11]
  T/C: 89 % of control
[12]
  T/C: 92 % of control

## O=C(/C=C/C(=O)Oc1c(Cl)cc(Cl)cc1Cl)Oc1c(Cl)cc(Cl)cc1Cl
[4]
  T/C: 106 % of control
[6]
  T/C: 96 % of control
[8]
  T/C: 96 % of control
[5]
  T/C: 104 % of control
[7]
  T/C: 105 % of control
[9]
  T/C: 93 % of control
dose: 400.0 mg/kg/injection, schedule: Q01DX009 (ip), vehicle: Klucel (hydroxypropylcellulose) (HPC)
  T/C: 96 % of control
[13]
  T/C: 98 % of control
dose: 400.0 mg/kg/injection, schedule: Q04DX003 (ip), vehicle: saline with Tween-80
  T/C: 91 % of control

## COc1ccc(OC)c(-n2cccc2C#N)c1
[14]
  T/C: 104 % of control
[15]
  T/C: 97 % of control
[16]
  T/C: 104 % of control

## COc1cc(NS(C)(=O)=O)ccc1Nc1c2ccccc2nc2c(C)cccc12
dose: 0.62 mg/kg/injection, schedule: Q01DX009 (ip), vehicle: saline
  T/C: 100 % of control
dose: 1.25 mg/kg/injection, schedule: Q01DX009 (ip), vehicle: Klucel (hydroxypropylcellulose) (HPC)
  T/C: 124 % of control
dose: 1.25 mg/kg/injection, schedule: Q01DX009 (ip), vehicle: saline
  T/C: 111 % of control
dose: 2.5 mg/kg/injection, schedule: Q01DX009 (ip), vehicle: saline
  T/C: 160 % of control
dose: 2.5 mg/kg/injection, schedule: Q01DX009 (sc), vehicle: saline
  T/C: 116 % of control
dose: 2.5 mg/kg/injection, schedule: Q04DX003 (ip), vehicle: saline
  T/C: 121 % of control
dose: 5.0 mg/kg/injection, schedule: Q01DX009 (ip), vehicle: Klucel (hydroxypropylcellulose) (HPC)
  T/C: 118 % of control
dose: 5.0 mg/kg/injection, schedule: Q01DX009 (ip), vehicle: saline
  T/C: 163 % of control
dose: 10.0 mg/kg/injection, schedule: Q01DX009 (ip), vehicle: Klucel (hydroxypropylcellulose) (HPC)
  T/C: 103 % of control
dose: 10.0 mg/kg/injection, schedule: Q01DX009 (sc), vehicle: saline
  T/C: 112 % of control
dose: 10.0 mg/kg/injection, schedule: Q04DX003 (ip), vehicle: saline
  T/C: 159 % of control and 164 % of control
dose: 20.0 mg/kg/injection, schedule: Q04DX003 (ip), vehicle: saline
  T/C: 213 % of control and 234 % of control

## O=C(OC1COC(OC(=O)c2ccc([N+](=O)[O-])cc2)C(OC(=O)c2ccc([N+](=O)[O-])cc2)C1OC(=O)c1ccc([N+](=O)[O-])cc1)c1ccc([N+](=O)[O-])cc1 (configuration not stated)
[17]
  T/C: 93 % of control
[18]
  T/C: 96 % of control
[19]
  T/C: 96 % of control

## O=C(CC(=O)c1ccccc1)Cc1ccccc1.O=C(CC(=O)c1ccccc1)Cc1ccccc1.[Cu]
[6]
  T/C: 94 % of control
[7]
  T/C: 97 % of control
[13]
  T/C: 104 % of control

## COC(=O)C1=C(O)CCCC=C1C(=O)O
dose: 100.0 mg/kg/injection, schedule: Q01DX001 (ip), vehicle: carboxymethylcellulose (CMC)
  T/C: 100 % of control
dose: 200.0 mg/kg/injection, schedule: Q01DX001 (ip), vehicle: carboxymethylcellulose (CMC)
  T/C: 103 % of control
dose: 400.0 mg/kg/injection, schedule: Q01DX001 (ip), vehicle: carboxymethylcellulose (CMC)
  T/C: 103 % of control

## CCOC(=O)CCC(NC(=O)C1CSC(C)(C)N1C=O)C(=O)OCC (configuration not stated)
[1]
  T/C: 104 % of control
[2]
  T/C: 93 % of control
[3]
  T/C: 98 % of control

## Cc1nc2cc(N=Cc3ccc(N(CCCl)CCCl)cc3F)ccc2n1C
[14]
  T/C: 104 % of control
[15]
  T/C: 101 % of control
[16]
  T/C: 104 % of control

## CNC(=O)CCC(=O)O
dose: 50.0 mg/kg/injection, schedule: Q04DX003 (ip), vehicle: saline
  T/C: 103 % of control
[17]
  T/C: 102 % of control
[1]
  T/C: 107 % of control
[18]
  T/C: 93 % of control
[2]
  T/C: 108 % of control
[19]
  T/C: 94 % of control

## CC1CCC2(C)CCC(C(C)C)C2(O)CC1 (configuration not stated)
dose: 50.0 mg/kg/injection, schedule: Q01DX009 (ip), vehicle: saline sonified
  T/C: 90 % of control
dose: 100.0 mg/kg/injection, schedule: Q01DX009 (ip), vehicle: saline sonified
  T/C: 97 % of control
dose: 100.0 mg/kg/injection, schedule: Q04DX003 (ip), vehicle: saline sonified
  T/C: 107 % of control
dose: 200.0 mg/kg/injection, schedule: Q01DX009 (ip), vehicle: saline sonified
  T/C: 92 % of control
dose: 200.0 mg/kg/injection, schedule: Q04DX003 (ip), vehicle: saline sonified
  T/C: 100 % of control

## CCN(CC)C(=O)C1C2C=CC(C2)C1C(=O)N(CC)CC (configuration not stated)
[8]
  T/C: 98 % of control
[9]
  T/C: 98 % of control

## O=C(Nc1cccc2ccccc12)OC/C=C/c1ccccc1
[14]
  T/C: 119 % of control
[15]
  T/C: 93 % of control
[16]
  T/C: 104 % of control

## COc1cc(/C=N/NC(=O)CNC(=O)c2ccc(Cl)cc2Cl)ccc1O
[10]
  T/C: 91 % of control
[11]
  T/C: 86 % of control
[12]
  T/C: 88 % of control

## CCOc1ccc(C(C)CC(=O)NN)c(O)c1 (configuration not stated)
dose: 75.0 mg/kg/injection, schedule: Q01DX001 (ip), vehicle: saline with Tween-80
  T/C: 95 % of control
dose: 150.0 mg/kg/injection, schedule: Q01DX001 (ip), vehicle: saline with Tween-80
  T/C: 98 % of control
dose: 300.0 mg/kg/injection, schedule: Q01DX001 (ip), vehicle: saline with Tween-80
  T/C: 101 % of control

## C(=C\c1ccccc1)/CSc1ncnc2nc[nH]c12
dose: 62.5 mg/kg/injection, schedule: Q01DX015 (ip), vehicle: saline
  T/C: 106 % of control
dose: 125.0 mg/kg/injection, schedule: Q01DX015 (ip), vehicle: saline
  T/C: 116 % of control
dose: 250.0 mg/kg/injection, schedule: Q01DX015 (ip), vehicle: saline
  T/C: 104 % of control
dose: 500.0 mg/kg/injection, schedule: Q01DX015 (ip), vehicle: saline
  T/C: 166 % of control
